Experimental data taken from patent US12673954B2 (BRISTOL-MYERS SQUIBB COMPANY, priority 2021, dated 2026).

Key:
[1] = tested on: IRF pathway, THP1-Dual™ cells; test: STING reporter assay in THP1-Dual cells, IRF pathway (Lucia luciferase, QUANTI-Luc); assay type: cell-based, human; conditions: Homo sapiens, THP1-Dual, 20 h, THP1-Dual cells, 10% human plasma, 20 hours; Lucia luciferase; 100% activation = 100 μM cGAMP; read-out: IRF (EC50 μM)
Summary of the method: (§1)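 THP-1-derived dual-reporter cells treated with serially diluted compounds (final top concentration 100 μM) for 20 h at 37° C. NF-κB read as SEAP via QUANTI-Blue at OD620; IRF read as Lucia luminescence via QUANTI-Luc after 5 min. 100% activation set by 100 μM cGAMP, baseline by DMSO.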

[2] = tested on: NF-κB pathway, THP1-Dual™ cells; test: STING reporter assay in THP1-Dual cells, NF-κB pathway (SEAP, QUANTI-Blue); assay type: cell-based, human; conditions: Homo sapiens, THP1-Dual, 20 h, THP1-Dual cells, 10% human plasma, 20 hours; SEAP; 100% activation = 100 μM cGAMP; read-out: NFkB (EC50 μM)
Summary of the method: as §1

Row | SMILES | EC50 [1] | EC50 [2]
1 | O=C(OCCN1CCOCC1)c1cc(Cl)cc2cc(CNC(=O)c3cnn4cccnc34)oc12 [EXAMPLE 255, 2-Morpholinoethyl 5-chloro-2-((pyrazolo[1,5-a]pyrimidine-3-carboxamido)methyl)benzofuran-7-carboxylate] | 13 µM | 19 µM
2 | O=C(OCCCN1CCOCC1)c1cc(Cl)cc2cc(CNC(=O)c3cnn4cccnc34)oc12 [EXAMPLE 256, 3-Morpholinopropyl 5-chloro-2-((pyrazolo[1,5-a]pyrimidine-3-carboxamido)methyl)benzofuran-7-carboxylate] | 6.7 µM | 4.8 µM
3 | CN1CCN(CCOC(=O)c2cc(Cl)cc3cc(CNC(=O)c4cnn5cccnc45)oc23)CC1 [EXAMPLE 257, 2-(4-Methylpiperazin-1-yl)ethyl 5-chloro-2-((pyrazolo[1,5-a]pyrimidine-3-carboxamido)methyl)benzofuran-7-carboxylate] | 28 µM | 11 µM
4 | CC(=O)OCOC(=O)c1cc(Cl)cc2cc(CNC(=O)c3cnn4cccnc34)oc12 [EXAMPLE 259, Acetoxymethyl 5-chloro-2-((13yrazole[1,5-a]pyrimidine-3-carboxamido)methyl)benzofuran-7-carboxylate] | 2.3 µM | 2.2 µM
5 | CC(C)OC(=O)c1cc(Cl)cc2cc(Cn3cnc4ccncc4c3=O)oc12 [EXAMPLE 262, Isopropyl 5-chloro-2-((4-oxopyrido[4,3-d]pyrimidin-3(4H)-yl)methyl)benzofuran-7-carboxylate] | 14 µM | 18 µM
6 | C[C@H](NC(=O)c1cnn2cccnc12)c1cc2cc(Cl)cc(C(=O)OC3CC(F)(F)C3)c2o1 [EXAMPLE 267, 3,3-Difluorocyclobutyl (S)-5-chloro-2-(1-(pyrazolo[1,5-a]pyrimidine-3-carboxamido)ethyl)benzofuran-7-carboxylate] | 5.8 µM | 6.6 µM
7 | C[C@H](NC(=O)c1cnn2cccnc12)c1cc2cc(Cl)cc(C(=O)O[C@H](C)C(F)(F)F)c2o1 [EXAMPLE 268, (R)-1,1,1-Trifluoropropan-2-yl 5-chloro-2-((S)-1-(pyrazolo[1,5-a]pyrimidine-3-carboxamido)ethyl)benzofuran-7-carboxylate] | 6.1 µM | 5.6 µM
8 | O=C(Cc1cc(Br)cc2cc(CNC(=O)c3cnn4cccnc34)oc12)OCC(F)(F)F [EXAMPLE 270, 2,2,2-Trifluoroethyl 2-(5-bromo-2-((pyrazolo[1,5-a]pyrimidine-3-carboxamido)methyl)benzofuran-7-yl)acetate] | 30 µM | 36 µM
9 | Cc1cc(C(=O)O[C@@H](C)C(F)(F)F)c2oc(C(C)NC(=O)c3cnn4cccnc34)cc2c1 (stereo partly drawn) [EXAMPLE 277, (S)-1,1,1-Trifluoropropan-2-yl 5-methyl-2-(1-(pyrazolo[1,5-a]pyrimidine-3-carboxamido)ethyl)benzofuran-7-carboxylate] | 13 µM | 16 µM
10 | Cc1cc(CC(=O)OCC(F)(F)F)c2oc(CNC(=O)c3cnn4cccnc34)cc2c1 [EXAMPLE 278, 2,2,2-Trifluoroethyl 2-(5-methyl-2-((pyrazolo[1,5-a]pyrimidine-3-carboxamido)methyl)benzofuran-7-yl)acetate] | 6.6 µM | 5.5 µM
11 | Cc1cc(CC(=O)O[C@H](C)C(F)(F)F)c2oc(CNC(=O)c3cnn4cccnc34)cc2c1 [EXAMPLE 279, (R)-1,1,1-Trifluoropropan-2-yl 2-(5-methyl-2-((pyrazolo[1,5-a]pyrimidine-3-carboxamido)methyl)benzofuran-7-yl)acetate] | 35 µM | 25 µM
12 | N#Cc1cc(C(=O)OCC(F)(F)F)c2oc(CNC(=O)c3cnn4cccnc34)cc2c1 [EXAMPLE 282, 2,2,2-Trifluoroethyl 5-cyano-2-((pyrazolo[1,5-a]pyrimidine-3-carboxamido)methyl)benzofuran-7-carboxylate] | 12 µM | 12 µM
13 | C[C@@H](OC(=O)c1c(F)c(F)cc2cc(CNC(=O)c3cnn4cccnc34)oc12)C(F)(F)F [EXAMPLE 284, (R)-1,1,1-Trifluoropropan-2-yl 5,6-difluoro-2-((pyrazolo[1,5-a]pyrimidine-3-carboxamido)methyl)benzofuran-7-carboxylate] | 9.6 µM | 6.3 µM

More lines, in order of falling EC50 [1], values ahead:

Row | EC50 [1] | EC50 [2] | SMILES
14 | 4.8 µM | 5.2 µM | CCOc1ncncc1C(=O)NCc1cc2cc(Cl)cc(C(=O)O[C@H](C)C(F)(F)F)c2o1 [EXAMPLE 263, (R)-1,1,1-trifluoropropan-2-yl 5-chloro-2-((4-ethoxypyrimidine-5-carboxamido)methyl)benzofuran-7-carboxylate]
15 | 3.1 µM | 2.6 µM | C[C@H](NC(=O)c1cnn2cccnc12)c1cc2cc(Cl)cc(C(=O)OCC(F)(F)F)c2o1 [EXAMPLE 266, 2,2,2-Trifluoroethyl (S)-5-chloro-2-(1-(pyrazolo[1,5-a]pyrimidine-3-carboxamido)ethyl)benzofuran-7-carboxylate]
16 | 3 µM | 3.5 µM | COCCOCCOC(=O)c1cc(Cl)cc2cc(CNC(=O)c3cnn4cccnc34)oc12 [EXAMPLE 258, 2-(2-Methoxyethoxy)ethyl 5-chloro-2-((pyrazolo[1,5-a]pyrimidine-3-carboxamido)methyl)benzofuran-7-carboxylate]
17 | 3 µM | 3.4 µM | Cc1cc(C(=O)O[C@H](C)C(F)(F)F)c2oc(C(C)NC(=O)c3cnn4cccnc34)cc2c1 (stereo partly drawn) [EXAMPLE 276, (R)-1,1,1-Trifluoropropan-2-yl 5-methyl-2-(1-(pyrazolo[1,5-a]pyrimidine-3-carboxamido)ethyl)benzofuran-7-carboxylate]
18 | 2.5 µM | 2.4 µM | COc1cc(C(=O)OCC(F)(F)F)c2oc(CNC(=O)c3cnn4cccnc34)cc2c1 [EXAMPLE 280, 2,2,2-Trifluoroethyl 5-methoxy-2-((pyrazolo[1,5-a]pyrimidine-3-carboxamido)methyl)benzofuran-7-carboxylate]
19 | 2.2 µM | 2.2 µM | Cc1cc(C(=O)O[C@@H](C)C(F)(F)F)c2oc(CNC(=O)c3cnn4cccnc34)cc2c1 [EXAMPLE 272, (S)-1,1,1-Trifluoropropan-2-yl 5-methyl-2-((pyrazolo[1,5-a]pyrimidine-3-carboxamido)methyl)-benzofuran-7-carboxylate]
20 | 1.7 µM | 1.7 µM | O=C(NCc1cc2cc(Cl)cc(C(=O)OCC(F)(F)F)c2o1)c1cncc2[nH]cnc12 [EXAMPLE 264, 2,2,2-Trifluoroethyl 2-((3H-imidazo[4,5-c]pyridine-7-carboxamido)methyl)-5-chlorobenzofuran-7-carboxylate]
21 | 1.4 µM | 1.9 µM | C[C@@H](OC(=O)c1c(F)ccc2cc(CNC(=O)c3cnn4cccnc34)oc12)C(F)(F)F [EXAMPLE 285, (R)-1,1,1-Trifluoropropan-2-yl 6-fluoro-2-((pyrazolo[1,5-a]pyrimidine-3-carboxamido)methyl)benzofuran-7-carboxylate]
22 | 1.1 µM | 1.1 µM | O=C(OCC(F)(F)F)c1cc(Br)cc2cc(CNC(=O)c3cnn4cccnc34)oc12 [EXAMPLE 269, 2,2,2-Trifluoroethyl 5-bromo-2-((pyrazolo[1,5-a]pyrimidine-3-carboxamido)methyl)benzofuran-7-carboxylate]
23 | 1 µM | 0.82 µM | CCOC(=O)OCOC(=O)c1cc(Cl)cc2cc(CNC(=O)c3cnn4cccnc34)oc12 [EXAMPLE 260, ((Ethoxycarbonyl)oxy)methyl 5-chloro-2-((pyrazolo[1,5-a]pyrimidine-3-carboxamido)methyl)benzofuran-7-carboxylate]
24 | 0.94 µM | 0.72 µM | Cc1cc(C(=O)OC2CC(F)(F)C2)c2oc(CNC(=O)c3cnn4cccnc34)cc2c1 [EXAMPLE 275, 3,3-Difluorocyclobutyl 5-methyl-2-((pyrazolo[1,5-a]pyrimidine-3-carboxamido)methyl)-benzofuran-7-carboxylate]
25 | 0.87 µM | 0.88 µM | O=C(Oc1ccccc1)c1cc(Cl)cc2cc(CNC(=O)c3cnn4cccnc34)oc12 [EXAMPLE 254, Phenyl 5-chloro-2-((pyrazolo[1,5-a]pyrimidine-3-carboxamido)methyl)benzofuran-7-carboxylate]
26 | 0.84 µM | 0.82 µM | C[C@@H](OC(=O)c1cc(Cl)cc2cc(CNC(=O)c3cncc4[nH]cnc34)oc12)C(F)(F)F [EXAMPLE 265, (R)-1,1,1-Trifluoropropan-2-yl 2-((3H-imidazo[4,5-c]pyridine-7-carboxamido)methyl)-5-chlorobenzofuran-7-carboxylate]
27 | 0.8 µM | 0.91 µM | Cc1cc(C(=O)O[C@H](C)C(F)(F)F)c2oc(CNC(=O)c3cnn4cccnc34)cc2c1 [EXAMPLE 271, (R)-1,1,1-Trifluoropropan-2-yl 5-methyl-2-((pyrazolo[1,5-a]pyrimidine-3-carboxamido)methyl)-benzofuran-7-carboxylate]
28 | 0.8 µM | 0.83 µM | Cc1cc(C(=O)OC(CF)CF)c2oc(CNC(=O)c3cnn4cccnc34)cc2c1 [EXAMPLE 274, 1,3-Difluoropropan-2-yl 5-methyl-2-((pyrazolo[1,5-a]pyrimidine-3-carboxamido)methyl)-benzofuran-7-carboxylate]
29 | 0.7 µM | 0.75 µM | Cc1cc(C(=O)OC(C)C)c2oc(CNC(=O)c3cnn4cccnc34)cc2c1 [EXAMPLE 273, Isopropyl 5-methyl-2-((pyrazolo[1,5-a]pyrimidine-3-carboxamido)methyl)-benzofuran-7-carboxylate]
30 | 0.4 µM | 0.52 µM | O=C(OCC(F)(F)F)c1cc(C(F)(F)F)cc2cc(CNC(=O)c3cnn4cccnc34)oc12 [EXAMPLE 283, 2,2,2-Trifluoroethyl 2-((pyrazolo[1,5-a]pyrimidine-3-carboxamido)methyl)-5-(trifluoromethyl)benzofuran-7-carboxylate]
